Measured values as given in patent US20160083400A1, “TRICYCLIC GUANIDINE DERIVATIVE” (Sunovion Pharmaceuticals Inc., priority 2014, published 2016).

Tests used:
Assay type in all cases: biochemical
PDE1C = PDE1C (Homo sapiens, UniProt Q14123); assay: In vitro HTRF PDE1 inhibition assay (PDE1C)
Excerpt: (§1) An exemplary procedure for the in vitro Homogenous Time Resolved Fluorescence (HTRF) assay, which can be used to determine the inhibitory action of compounds of the invention toward PDE1 or its isoforms, follows.
(§2) The HTRF PDE1 assay utilized the HTRF technology, which is based on the competition between unlabeled cyclic nucleotide and cyclic nucleotide labeled with XL665 for the binding to cyclic nucleotide-specific antibody labeled with cryptate. The HTRF signal is thus inversely proportional to the concentration of cyclic nucleotide being measured. Since phosphodiesterases break down cyclic nucleotides the HTRF signal was used to determine PDE activity.
(§3) The Cisbio cGMP HTRF assay kit (Cat no: 62GM2PEC) was utilized. Cyclic GMP was diluted to 200 nM in HTRF assay buffer (1 mM CaCl2, 10 mM MgCl2, 10 mM Tris-HCl, 0.1% BSA, pH7.4). 10 μl of compound or DMSO was diluted in 200 nM cyclic GMP solution and added to wells of a 96 well white plate to give 100 nM cyclic GMP in 1% DMSO final concentration. PDE (1A3, 1B or 1C) was diluted to 2× working concentration in HTRF assay buffer with 4 μg/ml Calmodulin, and 10 μl was added to initiate the reaction. The plate was then incubated for 45 minutes at 37° C. d2-Labelled cyclic GMP and anti-cGMP cryptate were diluted in 50 mM phosphate buffer, 0.8M KF, 1% Triton X100, 0.2% BSA, pH7.0. Following incubation 10 μl d2-cGMP, then 10 μl anti cGMP cryptate were added to each well and the plate was incubated for 45 minutes at rt. The plate was then read on Perkin Elmer Victor at 2 different FRET readings ex/emm 340 nm/665 nm and 340 nm/615 nm.
(§4) Compounds having an IC50 of <1 μM, are denoted as +++. Compounds having an IC50 of 1-10 μM, are denoted as ++. Compounds having an IC50 of 10-100 μM, are denoted as +.

PDE1B = PDE1B (Homo sapiens, UniProt Q01064); assay: In vitro HTRF PDE1 inhibition assay (PDE1B); conditions: 100 nM cyclic GMP, calmodulin, 45 minutes at 37° C.
PDE1B, sequence (Q01064 whole entry): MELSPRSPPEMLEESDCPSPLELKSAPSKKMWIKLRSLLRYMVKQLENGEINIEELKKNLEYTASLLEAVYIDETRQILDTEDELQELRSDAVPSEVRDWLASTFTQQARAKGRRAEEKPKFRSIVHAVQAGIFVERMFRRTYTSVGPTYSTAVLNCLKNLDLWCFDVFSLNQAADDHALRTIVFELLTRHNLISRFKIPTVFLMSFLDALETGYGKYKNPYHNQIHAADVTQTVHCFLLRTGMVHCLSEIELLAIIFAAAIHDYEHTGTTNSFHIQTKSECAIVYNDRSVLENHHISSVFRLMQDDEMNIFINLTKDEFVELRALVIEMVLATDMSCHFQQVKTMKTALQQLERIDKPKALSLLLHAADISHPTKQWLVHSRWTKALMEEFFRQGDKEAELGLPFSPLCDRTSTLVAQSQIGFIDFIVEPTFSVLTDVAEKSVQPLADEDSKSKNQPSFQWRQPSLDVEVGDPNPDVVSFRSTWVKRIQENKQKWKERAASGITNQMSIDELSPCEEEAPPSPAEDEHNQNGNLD
Protocol: The Cisbio cGMP HTRF assay kit (Cat no: 62GM2PEC) was utilized. Cyclic GMP was diluted to 200 nM in HTRF assay buffer (1 mM CaCl2, 10 mM MgCl2, 10 mM Tris-HCl, 0.1% BSA, pH7.4). […] PDE (1A3, 1B or 1C) was diluted to 2× working concentration in HTRF assay buffer with 4 μg/ml Calmodulin, and 10 μl was added to initiate the reaction. The plate was then incubated for 45 minutes at 37° C. d2-Labelled cyclic GMP and anti-cGMP cryptate were diluted in 50 mM phosphate buffer, 0.8M KF, 1% Triton X100, 0.2% BSA, pH7.0. Following incubation 10 μl d2-cGMP, then 10 μl anti cGMP cryptate were added to each well and the plate was incubated for 45 minutes at rt. The plate was then read on Perkin Elmer Victor at 2 different FRET readings ex/emm 340 nm/665 nm and 340 nm/615 nm.

PDE1A (PDE 1A3) = PDE1A (PDE 1A3) (Homo sapiens, UniProt P54750); assay: In vitro HTRF PDE1 inhibition assay (PDE1A); conditions: PDE1A (1A3); 100 nM cyclic GMP, calmodulin, 45 minutes at 37° C.
PDE1A (PDE 1A3), sequence (P54750 whole entry): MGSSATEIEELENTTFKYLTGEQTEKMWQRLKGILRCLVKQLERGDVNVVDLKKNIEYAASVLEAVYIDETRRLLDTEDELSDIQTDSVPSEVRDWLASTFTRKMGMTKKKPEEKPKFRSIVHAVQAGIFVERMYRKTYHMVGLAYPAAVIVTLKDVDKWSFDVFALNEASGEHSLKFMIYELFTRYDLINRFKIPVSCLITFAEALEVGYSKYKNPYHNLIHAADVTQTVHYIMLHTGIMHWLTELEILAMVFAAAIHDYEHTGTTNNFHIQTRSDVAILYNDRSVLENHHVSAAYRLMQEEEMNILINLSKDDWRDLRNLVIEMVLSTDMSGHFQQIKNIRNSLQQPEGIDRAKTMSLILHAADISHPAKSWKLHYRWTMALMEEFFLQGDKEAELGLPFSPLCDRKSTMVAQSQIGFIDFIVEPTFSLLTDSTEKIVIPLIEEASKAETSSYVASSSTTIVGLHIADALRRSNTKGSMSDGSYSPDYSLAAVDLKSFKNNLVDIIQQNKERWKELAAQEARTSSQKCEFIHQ
Excerpt: as §1, §2, §3, §4

PDE1C, sequence (Q14123 whole entry, canonical isoform): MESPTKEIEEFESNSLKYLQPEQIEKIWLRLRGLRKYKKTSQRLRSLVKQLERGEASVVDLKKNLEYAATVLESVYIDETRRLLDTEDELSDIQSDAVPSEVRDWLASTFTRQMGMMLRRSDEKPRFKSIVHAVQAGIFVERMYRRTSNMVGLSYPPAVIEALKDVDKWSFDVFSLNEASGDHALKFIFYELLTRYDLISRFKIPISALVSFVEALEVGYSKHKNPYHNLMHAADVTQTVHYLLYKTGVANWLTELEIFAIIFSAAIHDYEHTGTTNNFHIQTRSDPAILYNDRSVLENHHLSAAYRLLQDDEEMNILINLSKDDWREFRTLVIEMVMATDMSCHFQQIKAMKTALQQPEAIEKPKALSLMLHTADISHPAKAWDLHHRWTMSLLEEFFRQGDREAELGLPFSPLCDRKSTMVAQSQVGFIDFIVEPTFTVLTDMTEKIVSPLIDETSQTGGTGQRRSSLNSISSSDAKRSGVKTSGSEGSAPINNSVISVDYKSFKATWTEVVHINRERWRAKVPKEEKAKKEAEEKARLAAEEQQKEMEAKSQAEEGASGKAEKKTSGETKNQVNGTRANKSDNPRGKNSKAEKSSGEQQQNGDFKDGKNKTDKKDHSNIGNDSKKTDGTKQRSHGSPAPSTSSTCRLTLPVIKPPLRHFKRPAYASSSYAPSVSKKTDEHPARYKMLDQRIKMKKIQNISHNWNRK

## O=c1c2cnc(C3CCC3)n2nc2n1CC[C@H](c1ccc(Cl)cc1)N2 [Example 65]
PDE1C
  IC50: < 1000 nM
PDE1B
  IC50: < 1 µM
PDE1A (PDE 1A3)
  IC50: < 1 µM

## CC(C)n1ncc2c(=O)n3c(nc21)N[C@@H](c1ccc(Cl)cc1)C3 [Example 144]
PDE1C
  IC50: < 1000 nM
PDE1B
  IC50: < 1 µM
PDE1A (PDE 1A3)
  IC50: < 1 µM

## O=c1c2cnc(C3CCOCC3)n2nc2n1CCC(c1ccc(Cl)cc1)N2 (stereo not drawn) [Example 55]
PDE1C
  IC50: 1000 to 10000 nM
PDE1B
  IC50: < 1 µM
PDE1A (PDE 1A3)
  IC50: < 1 µM

## CC(C)(O)c1ncc2c(=O)n3c(nn12)N[C@@H](c1ccc(Cl)cc1)CC3 [Example 242]
PDE1C
  IC50: 1000 to 10000 nM
PDE1B
  IC50: < 1 µM
PDE1A (PDE 1A3)
  IC50: < 1 µM

## CC(C)n1ncc2c(=O)n3c(nc21)NC(c1ccc(C(F)(F)F)cc1)CC3 (stereo not drawn) [Example 29]
PDE1C
  IC50: 1000 to 10000 nM
PDE1B
  IC50: < 1 µM
PDE1A (PDE 1A3)
  IC50: < 1 µM

## CC[C@@H](C)c1ncc2c(=O)n3c(nn12)N[C@@H](c1ccc(Cl)cc1)CC3 [Example 226]
PDE1C
  IC50: < 1000 nM
PDE1B
  IC50: < 1 µM
PDE1A (PDE 1A3)
  IC50: < 1 µM

## CC[C@H](C)c1ncc2c(=O)n3c(nn12)N[C@@H](c1ccc(Cl)cc1)CC3 [Example 227]
PDE1C
  IC50: < 1000 nM
PDE1B
  IC50: < 1 µM
PDE1A (PDE 1A3)
  IC50: < 1 µM

## O=c1c2ncnc(C3CCOCC3)c2nc2n1CCC(c1ccc(Cl)cc1)N2 (stereo not drawn) [Example 265, 7-(4-Chlorophenyl)-4-(tetrahydro-2H-pyran-4-yl)-5,7,8,9-tetrahydro-11H-dipyrimido[1,2-a:5′,4′-d]pyrimidin-11-one]
PDE1C
  IC50: 1000 to 10000 nM
PDE1B
  IC50: < 1 µM
PDE1A (PDE 1A3)
  IC50: < 1 µM

## O=c1c2cnc([C@@H]3CCOC3)n2nc2n1CC[C@H](c1ccc(Cl)cc1)N2 [Example 224]
PDE1C
  IC50: 1000 to 10000 nM
PDE1B
  IC50: < 1 µM
PDE1A (PDE 1A3)
  IC50: < 1 µM

## COc1ccc([C@H]2Cn3c(nn4c(C5CCOCC5)ncc4c3=O)N2)cc1 [Example 151, (2S)-2-(4-Methoxyphenyl)-8-(tetrahydro-2H-pyran-4-yl)-2,10-dihydro-3H,5H-diimidazo[2,1-c:5′,1′-f][1,2,4]triazin-5-one]
PDE1C
  IC50: < 1000 nM
PDE1B
  IC50: < 1 µM
PDE1A (PDE 1A3)
  IC50: < 1 µM

## CC(C)c1ncc2c(=O)n3c(nn12)NC(c1ccc(Cl)cc1)CC3 (stereo not drawn) [Example 46]
PDE1C
  IC50: 1000 to 10000 nM
PDE1B
  IC50: < 1 µM
PDE1A (PDE 1A3)
  IC50: 10 to 100 µM

## O=c1c2cnc([C@H]3CCOC3)n2nc2n1CC[C@H](c1ccc(Cl)cc1)N2 [Example 225]
PDE1C
  IC50: < 1000 nM
PDE1B
  IC50: < 1 µM
PDE1A (PDE 1A3)
  IC50: < 1 µM

## COc1ccc(C2CCn3c(nn4c(C5CCOCC5)ncc4c3=O)N2)cc1 (stereo not drawn) [Example 57]
PDE1C
  IC50: < 1000 nM
PDE1B
  IC50: < 1 µM
PDE1A (PDE 1A3)
  IC50: < 1 µM

## O=c1c2cnc(C3(C(F)(F)F)CC3)n2nc2n1CC[C@H](c1ccc(Cl)cc1)N2 [Example 238]
PDE1C
  IC50: 1000 to 10000 nM
PDE1B
  IC50: < 1 µM
PDE1A (PDE 1A3)
  IC50: < 1 µM

## CO[C@H](C)c1ncc2c(=O)n3c(nn12)N[C@@H](c1ccc(Cl)cc1)CC3 [Example 260]
PDE1C
  IC50: 1000 to 10000 nM
PDE1B
  IC50: < 1 µM
PDE1A (PDE 1A3)
  IC50: < 1 µM

## O=c1c2cnc(C3CCOCC3)n2nc2n1C[C@H](c1ccc(Cl)cc1)N2 [Example 139]
PDE1C
  IC50: 1000 to 10000 nM
PDE1B
  IC50: < 1 µM
PDE1A (PDE 1A3)
  IC50: < 1 µM

## COC1(c2ncc3c(=O)n4c(nn23)N[C@@H](c2ccc(Cl)cc2)CC4)CC1 [Example 239]
PDE1C
  IC50: 1000 to 10000 nM
PDE1B
  IC50: < 1 µM
PDE1A (PDE 1A3)
  IC50: < 1 µM

## O=c1c2cnn(C3CCCC3)c2nc2n1CCC(c1ccc(Cl)cc1)N2 (stereo not drawn) [Example 4]
PDE1C
  IC50: 1000 to 10000 nM
PDE1B
  IC50: < 1 µM
PDE1A (PDE 1A3)
  IC50: 1 to 10 µM

## CC(C)c1ncc2c(=O)n3c(nn12)N[C@@H](c1ccc(Cl)cc1)CC3 [Example 18, (2R)-2-(4-Chlorophenyl)-9-isopropyl-1,2,3,4-tetrahydro-6H-imidazo[5,1-f]pyrimido[2,1-c][1,2,4]triazin-6-one]
PDE1C
  IC50: 1000 to 10000 nM
PDE1B
  IC50: < 1 µM
PDE1A (PDE 1A3)
  IC50: < 1 µM

## CO[C@@H](C)c1ncc2c(=O)n3c(nn12)N[C@@H](c1ccc(Cl)cc1)CC3 [Example 259]
PDE1C
  IC50: < 1000 nM
PDE1B
  IC50: < 1 µM
PDE1A (PDE 1A3)
  IC50: < 1 µM

## CC(C)n1ncc2c(=O)n3c(nc21)N[C@@H](c1ccc(Cl)cc1)CC3 [Example 27]
PDE1C
  IC50: 1000 to 10000 nM
PDE1B
  IC50: < 1 µM
PDE1A (PDE 1A3)
  IC50: < 1 µM
